For data set [1], the system named is GL261 mouse glioma. Briefly: NEO100-mediated human CAR T cell delivery to brain and tumor (CD3 IHC). It is filed as in vivo. On the procedure:
2-million CD19 and Lym-1 human CAR T cells that were suspended in 0.9% saline working solution to be used for the IV injection with and without intracardiac NEO100.
Preparation of the working solution for intracardiac injection of NEO100: 3% NEO100 suspended in 0.9% saline.
40 μl 3% NEO100 in saline was injected slowly to complete intracardiac application. Direct cell injection into the heart could cause local microinfarctions if the cells are clumpy during injection, hemopericardium and death as a consequence. This is why ultrasound guided injections with a small 30 G needle is important to minimize these potential adverse effects, (1) enabling the visualization of the needle tract to ensure that the needle enters the left ventricle only, and (2) subsequent monitoring of the heart through not only ECG but visualization of heart wall function after the injection. The fine gauge of the needle ensures that the cells are not clumpy when the cells are injected through intracardiac puncture.
Immediate after the completion of NEO100 injection, 2 million human CAR T cells in 40 μl PBS were injected through tail vein catheter that pre-primed with saline solution. To avoid the possible adverse effects mentioned above by direct cell injection through intracardiac application, we set up 2-step procedures for the study.
Step 1: 40 μl 3% NEO100 in saline was injected slowly to complete intracardiac application. This procedure allows NEO100 to exert the function of BBB disruption.
Step 2: 2-million CAR T cells were injected by IV through tail vein catheter.
Brain Perfusion—In order to rule out the residue left over inside the blood vessel after euthanizing, the testing animals were perfused by 10 ml 0.9% normal saline solution through left ventricle to flush out the blood. […] Confocal Imaging—[…] fresh frozen sections were made by cryostasis machine and pasted on microslide. Coverslip was mounted on the brain section by DAPI mounting medium before Confocal examination. […]

Data set [2] relates to GL261 mouse glioma. Nature of the data set: Anti-mouse PD-1 antibody therapeutic efficacy (survival) in intracranial syngeneic mouse glioma. The data set is classed as in vivo, C57 BL/6 mice. The procedure: 100,000 GL261 mouse glioma cells were injected intracranially to immune competent mice, C57 BL/6. 7 days post the injection, the mice were randomly divided into 4 experimental groups, and initiated the treatment at the same day. • Group 1. Control: IV and Intracardiac injection of 40 μl Saline Solution (5). • Group 2. Antibody treated mice: IV 40 μl Anti-mouse PD1 antibody at the dose of 2.5 • mg/kg (5). • Group 3. NEO100 treated mice: Intracardiac injection of 40 μl 5% NEO100 (5). • Group 4. Combination of NEO100 and antibody treated mice: Intracardiac 40 μl 5% NEO100, followed by IV 40 μl Anti-PD1 antibody at the dose of 2.5 mg/kg (6).
Animal survival data were plotted using the Kaplan-Meier method. One-way ANOVA was used for the overall test for differences. Grouped comparisons were performed using the Tukey method of adjusting for multiple comparisons. Logrank (Mantel-Cox) test was applied for the comparison of survival curves. A statistical evaluation result of p<0.05 was considered significant.

Data set [3] concerns Madin-Darby Canine Kidney (MDCK) cells. Briefly: In vitro BBB tight junction model (Transwell, TEER, fluorescence antibody). It is filed as cell-based. On the procedure: The labelled components are Transwell chemotaxis chamber; upper chamber; porous membrane and lower chamber. Transwell culture chambers (pore size: 0.8 μm). Madin-Darby Canine Kidney (MDCK) cells are epithelial cells. TEER: transepithelial/transendothelial electrical resistance. Fluorescence Ab: Alexa Fluo® 488; donkey anti-rat IgG (H+L). Fluorescence was measured in the lower chamber in about 120 minutes.

In data set [4] the test system is Raji's-Luc/GFP human B-cell lymphoma cells. Briefly: Lym-1 CAR T cell delivery in intracranial Raji lymphoma xenografts (survival). The conditions noted are these: IV Lym-1 CAR T (5×10e6) + IC NEO100 (0.3% v/v=492 μM); control mice died within 15-20 days; P=0.0029. It is filed as in vivo, NSG mice. The procedure:
50,000 (5×10^4) human B-cell lymphoma cells, Raji's-Luc/GFP, were injected intracranially into NSG mice.
5 days post the tumor cells injection, the optical imaging was performed to confirm the tumor uptake (100% tumor uptake).
There were 3 experimental groups: (1) Control; (2) IV CAR T (5×10e6); (3) IV CAR T (5×10e6)+IC NEO100 (0.3% v/v=492 μM)
Body weight was monitored for the physical condition of the mice during the treatment. Tumor growth was monitored by optical imaging.

Data set [5] concerns blood-brain-barrier.
Procedure: Brain Perfusion—Before euthanizing, the testing animals was perfused by 0.9% normal saline solution through left ventricle. The brain was removed and buried in OCT, and stored in −80° C. for further analysis.
Ultrasound Guided Intracardiac Puncture—Briefly, the animals were anesthetized using 2% isoflurane gas and fixed on the platform for intracardiac puncture. To penetrate the syringe needle into intercoastal space promptly through skin and muscle layers into the left ventricle under the guidance of ultrasound imaging. An indication of successful insertion of the needle into the left ventricle is the reflux of fresh arterial blood (pink color in contrast to dark red venous blood) into the syringe.
The extravasation of stained albumin from circulation could be visualized.
Different concentration of NE0100 (40 μ1 in 0.9% saline) was tested through intracardiac puncture, followed by immediate intravenous application of 2% Evans Blue (40 μ1 in volume). The brain was removed after perfusion.
Experimental groups include: • IC 2% EB only • IC 20% ethanol+2% EB • IC 20% ethanol+2% EB+5% NEO100 • IC 20% ethanol+5% NEO100, followed by 2% EB tail vein injection • IV 20% ethanol+2% EB+5% NEO100 • IV 20% ethanol+2% EB
The immune competent C57 BL/6 mice was injected with 5% NEO100 (v/v) through intracardiac puncture (IC), followed by intravenous injection of 2% Evans Blue at different time points, such as 0, 5 min, 15 min, 30 min, 1-hour, 2-hour, 3-hour, and 4 hours, post the IC injection.
Intracardiac Injection (IC): 5% NEO100. • 2. Followed by intravenous injection (IV) of 2% EB at different times. • 3. The testing animals were euthanized one hour after the IV injection.
The subject of data set [6] is recurrent malignant gliomas. To be noted: intranasal delivery, cited from earlier work.
Data set [7] concerns U-87 human glioma cells. Nature of the data set: Intracranial glioma model in athymic nu/nu mice (survival). It is filed as in vivo. The conditions noted are these: applicant's prior experience; untreated mice about four weeks. On the procedure: Male athymic nu/nu mice (6-8 weeks old) will be employed for this research. Rodent subcutaneous/intracranial glioma model can be established as follows. Six to eight week old athymic nu/nu mice will be anesthetized with intraperitoneal injections of ketamine (80 mg/kg) and xylazine (10 mg/kg). For the intracranial glioma model, the mice are placed into a stereotactic head frame (Harvard Apparatus), and local anesthetic (0.2 cc of 0.25% xylocaine) is injected into the right frontal scalp. A knife blade is used to make a small incision, and a drill bit is used to make a small opening in the right frontal skull at the level of the coronal suture. Glioma cells (1×10^5 cells/10 μl), for example, U-87 human glioma cells, will be loaded into a calibrated Hamilton syringe. The needle tip will be placed precisely into the right frontal lobe of the […], and cells will be slowly injected using a control push from the Hamilton syringe. After the injection is finished, the syringe and needle will be removed, and the wound closed. […]
Brains will be harvested, and tumor size determined. […]

The structures appear in SMILES notation. “Also recorded” adds a separate entry of the source.

As to `C=C(C)[C@@H]1CC=C(CO)CC1` [NEO100, perillyl alcohol], the “severe adverse effect or animal death” value in data set [1] (3% NEO100 intracardiac injection) is given as “does not cause any severe adverse effect or animal death”. For the same compound, the “penetration of human CAR T cells (anti-CD19 and Lym-1) into the tumor formed inside the brain” value in data set [1] (40 μl 3% NEO100 intracardiac, then 2 million CAR T cells IV, compared to IV only, 6 h) is “greatly increase the penetration into the tumor”. In addition, the “CD3 positive cells in the normal parts of brain” value in data set [1] (intracardiac NEO100 plus IV CAR T cells vs IV injection only) is reported as “More CD3 positive cells were found in the normal parts of brain”. For the same compound, the “animal survival, combination” value in data set [2] (40 μl 5% NEO100 intracardiac followed by anti-PD1 antibody 2.5 mg/kg IV) is “still alive”. Also, the “animal survival, single agent” value in data set [2] (NEO100 alone (40 μl 5% intracardiac) or anti-PD1 alone (2.5 mg/kg IV)) is on record as “all the controls were dead”. The “penetration of fluorescence labelled antibody across in vitro BBB model” value in data set [3] (Alexa Fluo 488 donkey anti-rat IgG, fluorescence in lower chamber at about 120 minutes) was “transiently allow labeled antibodies to transiently cross it; also recorded: enhanced penetration of fluorescence labelled antibody”. The “TEER (transepithelial/transendothelial electrical resistance)” value in data set [3] (NEO100 2 mM) is on record as “decreased TEER”. For the same compound, the “animal survival (Kaplan Meier)” value in data set [4] was “survived”. Moreover, the “disturbance of the BBB (Evans Blue uptake into brain)” value in data set [5] (NEO100 1:1000 dilution (6.5 mM 40 μl) intracardiac, then 2% Evans Blue IV) was “still effective to disturb the BBB”. Also, the “dopamine delivery to the brain” value in data set [5] (intracardiac NEO100) was “mediated dopamine delivery through the breached blood-brain-barrier”. In data set [5] (intracardiac injection (equivalent to intra-arterial injection for mice)), the “opening of the BBB for antibodies” value is “could open the BBB for antibodies”. The “tight junction in the brain” value in data set [5] (intracardiac injection of 5% NEO100 compared to normal brain) is given as “breached dramatically”. Moreover, in data set [5] (mouse, in vivo), the “safety of intraarterial administration” value is on record as “safe to administer intraarterially”. Further, the “patients achieving 6 month progression-free period” value in data set [6] (140 treated patients) was 50%. Moreover, in data set [6], the disease response entry is “regression or stabilization of the disease” and the “side effects from the treatment” value was “almost non-existent”. Also, in data set [6] (several patients), the disease remission is at most 3 years.

Turning to `Cn1nnc2c(C(N)=O)ncn2c1=O` [TMZ, temozolomide], in data set [7], the survival after implantation result is recorded as “up to 8 weeks”.

(Values after patent US12514828B2, “Methods of permeabilizing the blood brain barrier” (UNIVERSITY OF SOUTHERN CALIFORNIA, priority 2018, dated 2026).)
